These are literature values, as cited in patent publication US11903918B2, “Fumarate ester dosage forms with enhanced gastrointestinal tolerability” (BANNER LIFE SCIENCES LLC, priority 2020, dated 2024).

Counter-ions that a name gives are not always drawn.

The subject of data set [1] is nuclear factor erythroid-derived 2-like (Nrf2) pathway. As to conditions: in vitro and in vivo in humans.

With `COC(=O)/C=C/C(=O)OC` [dimethyl fumarate, dimethyl (E) butenedioate], the solubility in water result is “highly soluble in water”. Also, the “activation of the Nrf2 pathway” value in data set [1] is “activate”.
